{"source": "PubChem BioAssay AID1949", "about": "(Southern Research Institute, 2009)", "note": "Results filed as inconclusive are left out. Activity calls are given as the source filed them. The rule behind the calls is not given here.", "data": [{"system": "M. tuberculosis H37Rv growth inhibition", "assay": "Confirmatory growth inhibition assay against Mycobacterium tuberculosis H37Rv, potency (AID 1949);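 note: bacteria grown 7 days with compound before Alamar blue readout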", "values": [{"smiles": "Cc1ccc(-c2nc(C#N)c(NCCCn3ccnc3)o2)cc1", "IC50": "> 50 µg/mL (inactive)"}, {"smiles": "O=C(NCCc1c[nH]c2ccccc12)C(Cl)Cl", "IC50": "2.63 µg/mL"}, {"smiles": "CCCCc1ccc(NC(=S)NC(=O)c2ccc(OCC)c(Cl)c2)cc1", "IC50": "0.34 µg/mL"}, {"smiles": "CCOC(=O)c1cc(-c2ccc(/C=C/[N+](=O)[O-])o2)ccc1Cl", "IC50": "> 50 µg/mL (inactive)"}, {"smiles": "C/C(=N/N=C1\\NC(=O)C(Cc2ccc(F)cc2)S1)c1ccc(Cl)cc1", "note": "(centres undefined)", "IC50": "1.48 µg/mL"}, {"smiles": "COc1cc2c(cc1OC)C(c1ccc(-c3ccc(Cl)c(Cl)c3)o1)=NCC2", "IC50": "6.98 µg/mL"}, {"smiles": "O=C(Nc1cccc(C(F)(F)F)c1)N1CCN(c2cccc(C(F)(F)F)c2)CC1", "IC50": "5.09 µg/mL"}, {"smiles": "CC(C)COCc1ccc(O)c2ncccc12", "IC50": "> 50 µg/mL (inactive)"}, {"smiles": "Cc1cc(C)c2c(N)c3cccc(C)c3nc2n1", "IC50": "> 50 µg/mL (inactive)"}, {"smiles": "CCn1cc(C(=O)O)c(=O)c2cc(F)c(N3CCN(S(=O)(=O)c4ccc(NC(C)=O)cc4)CC3)cc21", "IC50": "36.6 µg/mL"}, {"smiles": "CCOc1cc(CNCCO)cc(Br)c1OCc1ccc(Cl)cc1Cl", "IC50": "1.54 µg/mL"}, {"smiles": "CC(C)(C)c1ccc(OCCn2c(N)nc3ccccc32)cc1", "IC50": "1.61 µg/mL"}, {"smiles": "CCC(C)Oc1ccc(C(=O)NC(=S)Nc2ccc(N3CCOCC3)cc2)cc1", "note": "(centres undefined)", "IC50": "1.22 µg/mL"}, {"smiles": "N#Cc1c(C(F)(F)F)cc(-c2cccnc2)nc1SCC(=O)N1CCc2ccccc2C1", "IC50": "> 50 µg/mL (inactive)"}, {"smiles": "O=C(COc1cccc(Cl)c1)Nc1ccc(F)c(Cl)c1", "IC50": "5.7 µg/mL"}, {"smiles": "CC12CC3CC(C)(C1)CC(C(=O)Nc1nc4ccccc4s1)(C3)C2", "IC50": "0.24 µg/mL"}, {"smiles": "O=C(CC1(O)C(=O)N(CCc2ccccc2)c2ccc(Cl)cc21)c1cccnc1", "note": "(centres undefined)", "IC50": "6.05 µg/mL"}, {"smiles": "O=C(NC(=S)Nc1ccc(F)cc1)c1ccc(Br)cc1", "IC50": "0.95 µg/mL"}, {"smiles": "COc1ccc(C2CC(=O)C3=C(C2)NC(C)=C(C(=O)Nc2ccccc2C)C3c2coc3ccc(C)cc3c2=O)cc1OC", "note": "(centres undefined)", "IC50": "3.7 µg/mL"}, {"smiles": "c1ccc(-n2nnnc2Oc2cccc3cccnc23)cc1", "IC50": "5.68 µg/mL"}, {"smiles": "COc1ccc(C(=O)CCN2CCCC(C)C2)cc1", "note": "(centres undefined)", "IC50": "35 µg/mL"}, {"smiles": "O=C(Nc1ccc(Cc2ccncc2)cc1)c1ccc(-c2cccc(C(F)(F)F)c2)o1", "IC50": "12 µg/mL"}, {"smiles": "O=C(NCCc1c[nH]c2ccccc12)Nc1ccc(Cl)c(Cl)c1", "IC50": "3.69 µg/mL"}, {"smiles": "COC(=O)COc1cccc(NC(=O)c2cccc(C)c2)c1", "IC50": "2.85 µg/mL"}, {"smiles": "COc1ccccc1-c1c(C)oc2cc(OCc3ccccc3)ccc2c1=O", "IC50": "9.15 µg/mL"}, {"smiles": "Nc1nc2ccccc2n1CCOc1ccc(Cl)cc1Cl", "IC50": "3.85 µg/mL"}, {"smiles": "COc1cc(CNc2nccs2)cc(Br)c1OCc1ccc(F)cc1", "IC50": "11.5 µg/mL"}, {"smiles": "O=C(Oc1c(Cl)cc(Cl)c2cccnc12)c1ccc([N+](=O)[O-])cc1", "IC50": "0.88 µg/mL"}, {"smiles": "CC12CCC(C(=O)Oc3cccc4cccnc34)(CC1=O)C2(C)C", "note": "(centres undefined)", "IC50": "1.57 µg/mL"}, {"smiles": "O=C(CCNc1ccc(F)cc1)c1ccco1", "IC50": "5.39 µg/mL"}, {"smiles": "O=C(CC1(O)C(=O)N(CCc2ccccc2)c2ccc(Cl)cc21)c1ccc2c(c1)OCCO2", "note": "(centres undefined)", "IC50": "7.71 µg/mL"}, {"smiles": "CCC(=O)Oc1ccc(C(=O)Nc2cc3oc4ccccc4c3cc2OC)cc1", "IC50": "1.46 µg/mL"}, {"smiles": "COc1ccc(Cn2c(=O)c3c(n4cnnc24)-c2ccccc2CC32CCCCC2)cc1", "IC50": "2.84 µg/mL"}, {"smiles": "COC(C)(C)C#CC(=O)c1cccc2ccccc12", "IC50": "2.78 µg/mL"}, {"smiles": "O=C(Nc1cccc(C(F)(F)F)c1)c1ccc(Cn2cc(Cl)cn2)cc1", "IC50": "5.67 µg/mL"}, {"smiles": "Cc1cc(C(C)(C)C)ccc1OCCOCCn1ccnc1", "IC50": "2.93 µg/mL"}, {"smiles": "CC1CCN(c2ccc(NC(=O)c3ccc([N+](=O)[O-])o3)cc2)CC1", "IC50": "0.31 µg/mL"}, {"smiles": "Cc1ccc(NC(=O)COc2cccc(C=O)c2)cc1Cl", "IC50": "5.9 µg/mL"}, {"smiles": "C/C(Cl)=C/Cc1c(C)[nH]c2ccccc2c1=O", "IC50": "16.6 µg/mL"}, {"smiles": "O=C(NC(=S)N1CCc2ccccc21)c1ccccc1", "IC50": "1.45 µg/mL"}, {"smiles": "COC(=O)COc1ccc2cc(-c3ccc(Cl)cc3)c(=O)oc2c1", "IC50": "18.8 µg/mL"}, {"smiles": "CCN(CC)c1ccc(NC(=O)C23CC4CC(CC(C4)C2)C3)cc1", "IC50": "> 50 µg/mL (inactive)"}, {"smiles": "COc1cc2ccccc2cc1C(=O)NCCC12CC3CC(CC(C3)C1)C2", "IC50": "3.27 µg/mL"}, {"smiles": "CC1=CC(C)(C)N2C(=O)C(=O)c3cc(OC(=O)c4ccccc4C)cc1c32", "IC50": "8.23 µg/mL"}, {"smiles": "CC(C)CC(=O)NC(c1ccc(Cl)cc1Cl)c1c(O)ccc2ccccc12", "note": "(centres undefined)", "IC50": "1.72 µg/mL"}, {"smiles": "OC(CNC1CCCC1)Cn1c2ccccc2c2ccccc21", "note": "(centres undefined)", "IC50": "8.93 µg/mL"}, {"smiles": "COc1ccccc1NC(=O)CSc1nc(-c2ccccc2)cc(C(F)(F)F)c1C#N", "IC50": "1.63 µg/mL"}, {"smiles": "CC(C)(C)NC(=O)c1cc2cc([N+](=O)[O-])ccc2oc1=O", "IC50": "1.48 µg/mL"}, {"smiles": "O=c1c2cc(I)ccc2nc(/C=C/c2cccnc2)n1CCc1ccccc1", "IC50": "31.4 µg/mL"}, {"smiles": "O=C(NCCC1=CCCCC1)Nc1ccc([N+](=O)[O-])cc1", "IC50": "11.6 µg/mL"}, {"smiles": "N#Cc1ccc(NC(=O)Nc2cccc(Cl)c2)cc1", "IC50": "4.6 µg/mL"}, {"smiles": "Cc1cc(Br)c2[nH]c(O)c(N=NC(=O)COc3ccc(C(C)(C)C)cc3C)c2c1", "IC50": "27 µg/mL"}, {"smiles": "Cc1cc(C)c(-n2c(O)c(/C=C3\\C=CC=N3)c(=O)[nH]c2=O)c(C)c1", "IC50": "0.13 µg/mL"}, {"smiles": "CCOc1ccccc1NC(=O)CSc1nc2ccc(NC(=O)c3ccccc3Cl)cc2s1", "IC50": "1.25 µg/mL"}, {"smiles": "O=C(CC12CC3CC(CC(C3)C1)C2)NC(=S)Nc1ccc2c(c1)OCCO2", "IC50": "> 50 µg/mL (inactive)"}, {"smiles": "CC1CCc2nc(NC(=S)NCc3ccco3)sc2C1", "note": "(centres undefined)", "IC50": "3.09 µg/mL"}, {"smiles": "CCc1cc(C(=O)OC)c(NC(=S)NCc2ccc(Cl)c(Cl)c2)s1", "IC50": "0.14 µg/mL"}, {"smiles": "COc1ccc(NC(=O)c2c(NC(=O)c3ccc([N+](=O)[O-])o3)sc3c2CCC3)cc1", "IC50": "0.26 µg/mL"}, {"smiles": "COc1ccccc1Nc1nc(N)nc(CN2CCC(Cc3ccccc3)CC2)n1", "IC50": "37.8 µg/mL"}]}]}
